Measurements published in ChEMBL document CHEMBL1201862, “PubChem BioAssay data set” (2004).
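Five concentrations, 48 hours, 96-well plates. At the GI50, growth is halved.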 Activity calls are given as the source filed them. Rule as the data show it: active = GI50 up to about 1.1 µM and inactive = higher.

Legend:
Assay in all cases: NCI-60 cell line screen, 48 h
DMS-114 = tested on: DMS-114
COLO 205 = tested on: COLO 205
SK-MEL-2 = tested on: SK-MEL-2
OVCAR-8 = tested on: OVCAR-8
SN12C = tested on: SN12C
EKVX = tested on: EKVX
SK-OV-3 = tested on: SK-OV-3
SK-MEL-28 = tested on: SK-MEL-28
OVCAR-3 = tested on: OVCAR-3
HOP-62 = tested on: HOP-62
CAKI-1 = tested on: CAKI-1
HOP-18 = tested on: HOP-18
K562 = tested on: K562
SNB-19 = tested on: SNB-19
786-0 = tested on: 786-0
HCT-15 = tested on: HCT-15
CCRF-CEM = tested on: CCRF-CEM
SNB-75 = tested on: SNB-75
NCI-H522 = tested on: NCI-H522
RPMI-8226 = tested on: RPMI-8226
DMS-273 = tested on: DMS-273
A498 = tested on: A498
OVCAR-5 = tested on: OVCAR-5
SF-295 = tested on: SF-295
UACC-62 = tested on: UACC-62
HCT-116 = tested on: HCT-116
NCI-H23 = tested on: NCI-H23
HL-60 = tested on: HL-60
HCC 2998 = tested on: HCC 2998
SW-620 = tested on: SW-620
LXFL 529 = tested on: LXFL 529
HT-29 = tested on: HT-29
DLD-1 = tested on: DLD-1
LOX IMVI = tested on: LOX IMVI
M19-MEL = tested on: M19-MEL
OVCAR-4 = tested on: OVCAR-4
NCI-H460 = tested on: NCI-H460
MOLT-4 = tested on: MOLT-4
KM-20L2 = tested on: KM-20L2
KM12 = tested on: KM12
HOP-92 = tested on: HOP-92
SF-539 = tested on: SF-539
U-251 = tested on: U-251
IGROV-1 = tested on: IGROV-1
Malme-3M = tested on: Malme-3M
NCI-H226 = tested on: NCI-H226
TK-10 = tested on: TK-10
A549 = tested on: A549
SK-MEL-5 = tested on: SK-MEL-5
M14 = tested on: M14
SF-268 = tested on: SF-268
UO-31 = tested on: UO-31
ACHN = tested on: ACHN
UACC-257 = tested on: UACC-257
SNB-78 = tested on: SNB-78
RXF 393 = tested on: RXF 393

For CCCC(=O)c1ccc2c(ccc(=O)n2C)c1, the GI50 (DMS-114) was 31.6 µM (inactive), the GI50 (COLO 205) was > 100 µM (inactive) and the GI50 (SK-MEL-2) was > 100 µM (inactive). For the same molecule, the GI50 (OVCAR-8) was > 100 µM (inactive), the GI50 (SN12C) was > 100 µM (inactive) and the GI50 (EKVX) was 42.2 µM (inactive). The GI50 (SK-OV-3) was > 100 µM (inactive), the GI50 (SK-MEL-28) was > 100 µM (inactive) and the GI50 (OVCAR-3) was > 100 µM (inactive). For the same molecule, the GI50 (HOP-62) was > 100 µM (inactive), the GI50 (CAKI-1) was 52.7 µM (inactive) and the GI50 (HOP-18) was 88.1 µM (inactive). The GI50 (K562) was > 100 µM (inactive), the GI50 (SNB-19) was > 100 µM (inactive) and the GI50 (786-0) was > 100 µM (inactive). For the same molecule, the GI50 (HCT-15) was > 100 µM, the GI50 (CCRF-CEM) was > 100 µM (inactive) and the GI50 (SNB-75) was 27.2 µM (inactive). For the same molecule, the GI50 (NCI-H522) was 31.9 µM (inactive), the GI50 (RPMI-8226) was > 100 µM (inactive) and the GI50 (DMS-273) was 66.2 µM (inactive). For the same molecule, the GI50 (A498) was 83 µM (inactive), the GI50 (OVCAR-5) was > 100 µM (inactive) and the GI50 (SF-295) was > 100 µM (inactive). The GI50 (UACC-62) was 24.3 µM (inactive), the GI50 (HCT-116) was > 100 µM (inactive) and the GI50 (NCI-H23) was > 100 µM (inactive). The GI50 (HL-60) was > 100 µM (inactive), the GI50 (HCC 2998) was > 100 µM (inactive) and the GI50 (SW-620) was > 100 µM (inactive). For the same molecule, the GI50 (LXFL 529) was 84.5 µM (inactive), the GI50 (HT-29) was > 100 µM (inactive) and the GI50 (DLD-1) was > 100 µM (inactive). The GI50 (LOX IMVI) was > 100 µM (inactive), the GI50 (M19-MEL) was > 100 µM (inactive) and the GI50 (OVCAR-4) was 66.7 µM (inactive). For the same molecule, the GI50 (NCI-H460) was > 100 µM (inactive), the GI50 (MOLT-4) was > 100 µM (inactive) and the GI50 (KM-20L2) was > 100 µM (inactive). The GI50 (KM12) was > 100 µM (inactive), the GI50 (HOP-92) was 46.2 µM (inactive) and the GI50 (SF-539) was > 100 µM (inactive). For the same molecule, the GI50 (U-251) was > 100 µM (inactive), the GI50 (IGROV-1) was > 100 µM (inactive) and the GI50 (Malme-3M) was > 100 µM (inactive). The GI50 (NCI-H226) was 31 µM (inactive), the GI50 (TK-10) was > 100 µM (inactive) and the GI50 (A549) was > 100 µM (inactive). For the same molecule, the GI50 (SK-MEL-5) was 72.9 µM (inactive), the GI50 (M14) was > 100 µM (inactive) and the GI50 (SF-268) was > 100 µM (inactive).
With O=C1CCC(Cl)=CC2CCCN12 (centres undefined) the GI50 (DMS-114) was > 100 µM (inactive), the GI50 (COLO 205) was > 100 µM (inactive) and the GI50 (SK-MEL-2) was > 100 µM (inactive). The GI50 (OVCAR-8) was > 100 µM (inactive), the GI50 (SN12C) was > 100 µM (inactive) and the GI50 (EKVX) was > 100 µM (inactive). The GI50 (SK-OV-3) was > 100 µM (inactive), the GI50 (SK-MEL-28) was > 100 µM (inactive) and the GI50 (HOP-62) was > 100 µM (inactive). For the same molecule, the GI50 (CAKI-1) was > 100 µM (inactive), the GI50 (UO-31) was > 100 µM (inactive) and the GI50 (K562) was > 100 µM (inactive). The GI50 (SNB-19) was > 100 µM (inactive), the GI50 (786-0) was > 100 µM (inactive) and the GI50 (HCT-15) was > 100 µM. The GI50 (CCRF-CEM) was > 10 µM (inactive), the GI50 (SNB-75) was > 100 µM (inactive) and the GI50 (RPMI-8226) was > 100 µM (inactive). For the same molecule, the GI50 (A498) was > 100 µM (inactive), the GI50 (OVCAR-5) was > 100 µM (inactive) and the GI50 (UACC-62) was > 100 µM (inactive). For the same molecule, the GI50 (HCT-116) was > 100 µM (inactive), the GI50 (NCI-H23) was > 100 µM (inactive) and the GI50 (ACHN) was > 100 µM (inactive). For the same molecule, the GI50 (HL-60) was > 100 µM (inactive), the GI50 (HCC 2998) was > 100 µM (inactive) and the GI50 (SW-620) was > 100 µM (inactive). The GI50 (LXFL 529) was > 100 µM (inactive), the GI50 (HT-29) was > 100 µM (inactive) and the GI50 (DLD-1) was > 100 µM (inactive). For the same molecule, the GI50 (LOX IMVI) was > 100 µM (inactive), the GI50 (M19-MEL) was > 100 µM (inactive) and the GI50 (NCI-H460) was > 100 µM (inactive). For the same molecule, the GI50 (UACC-257) was > 100 µM (inactive), the GI50 (MOLT-4) was > 100 µM (inactive) and the GI50 (KM-20L2) was > 100 µM (inactive). For the same molecule, the GI50 (HOP-92) was > 100 µM (inactive), the GI50 (SF-539) was > 100 µM (inactive) and the GI50 (SNB-78) was > 100 µM (inactive). The GI50 (U-251) was > 100 µM (inactive), the GI50 (IGROV-1) was > 100 µM (inactive) and the GI50 (Malme-3M) was > 100 µM (inactive). The GI50 (NCI-H226) was > 100 µM (inactive), the GI50 (RXF 393) was > 100 µM (inactive) and the GI50 (TK-10) was > 100 µM (inactive). The GI50 (A549) was > 100 µM (inactive), the GI50 (SK-MEL-5) was > 100 µM (inactive) and the GI50 (M14) was > 100 µM (inactive).
